Where no end group is shown, it is not given here.
System: 4T1细胞
Assay: In vitro antitumor evaluation: MTT cell viability assay in 4T1 cells
Type: cell-based
Settings: 48 h

LLVVYPWTQR [LLVV-Hemorphin-6肽]
细胞抑制效果 (cell inhibition effect), peptide alone at high concentration (peptide 10 μM): 存在一定的细胞抑制效果 | 细胞抑制率 (cell inhibition rate), peptide alone (peptide 0.0001-10 μM): 较低

From CN105367624A, “一种LLVV-Hemorphin-6肽的制备方法和用途” (Individual, priority 2015, dated 2016)
